Reference: patent publication US8883183B2, “Medical devices incorporating collagen inhibitors” (Wake Forest University Health Sciences, priority 2008, dated 2014)

Tests used:
[1] = tested on: full thickness dermal incisions; assay: Rat dorsal full thickness dermal incision wound healing model; format: in vivo
Description: A total of nine animals underwent surgery: three controls and six treatment animals. On each control animal four full thickness dermal incisions were made on the dorsum. The two anterior incisions were closed with uncoated 3-0 Vicryl and N-butyl-2-cyanoacrylate glue; the posterior incisions were closed with Vicryl alone. In the experimental animals four full thickness wounds were made on the dorsum; the two anterior incisions were closed uncoated Vicryl and a mixture of HF—Br and N-butyl-2-cyanoacrylate (0.5 cc of HF—Br was added to 0.5 cc of N-butyl cyanoacrylate glue) was applied topically to the closed wound. The two posterior wounds were closed with HF—Br coated 3-0 Vicryl. Two treatment animals and one control animal were then euthanized at 2, 6, and 12 weeks and soft tissue specimens were taken for analysis.
Soft tissue samples were harvested, embedded in paraffin and sectioned (5 μm). Sections were stained with Hematoxylin and Eosin (H&E) and Masson's Trichrome. Inflammation scores were recorded according to the method of Storch (Surgical Infections. 2002; 3: 89-98). The area of scar tissue deposition was approximated and calculated with light microscopy and a Zeiss™ digital image capture software system.
To evaluate levels of newly formed collagen, tissue samples were digested in 1M NaCl in 0.05M Tris. Salt soluble collagen was then bound with a Sircol™ dye detection system and content was measured with UV spectrophotometry at […]. Percent tissue masses of salt soluble collagen were higher in all week 2 samples.
Tensile strength of dermal wound tissue specimens is assessed by measuring the breaking point with a tensometer. Tissue specimens are harvested and analyzed immediately after animals are sacrificed. The specimens are attached to the tensometer and pressure is applied until the wound breaks. This breaking pressure is recorded as tensile strength.
Skin samples were harvested so that the plane of the scar would be perpendicular to the direction of force applied. Samples were frozen, re-thawed, and secured by clamps in an tensometer (Instron™ Norwood, Mass.). Force was then applied until samples broke. Ultimate tensile load, percent elongation, and stiffness were then calculated for three control and three HF—Br treated samples at 2 and 12 weeks. Averages were reported. Average stiffness, ultimate tensile load, and percent elongation for all tissue samples increased from 2 to 12 weeks (FIG. 9).

[2] = tested on: alpha 1 collagen gene expression; assay: Real time qPCR of alpha 1 collagen gene expression in wound border skin; format: in vivo, rat; details: wounds treated topically, suture only animals
Description: To determine alpha 1 collagen gene expression (in suture only animals), 2 mm punch biopsies of skin were taken at the border of wounds adjacent to suture material. Samples were flash frozen, pulverized, and RNA was extracted with Trizol reagent. Real time qPCR was employed to measure gene expression using rat 1-alpha-2 collagen ampliset. Relative quantities of alpha 1 collagen gene expression were normalized with expression levels of 18S and GAPDH RNA. These values were then divided by the relative quantity of alpha 1 collagen gene expression in normal skin.

[3] = tested on: paranasal sinus wounds; assay: Rat model of paranasal sinus surgery, HF-coated cellulose pack; format: in vivo; details: topical administration
Description: Topical application of a halofuginone/cellulose derivative packing was tested for the prevention of scar tissue formation in the paranasal sinuses of a rat. The paired, anatomically identical paranasal sinuses of the rat allow one side to serve as a control and the other to serve as experimental. The control sinus was packed with an uncoated cellulose derivative packing material (Merocel). The other (experimental) sinus cavity was packed with a halofuginone bromide coated cellulose derivative compound packing material. A second set of animals underwent paranasal sinus surgery and no packing material of any kind was placed. Both packing preparations provide adequate homeostasis and require removal, as in the human clinical scenario. The surgical wound was closed using absorbable subcuticular sutures. Sinus surgery was performed in the rat and packs placed for 5 days. Sinus specimens were harvested and analyzed.
In vivo elution studies were performed on packs removed 5 days post-operatively, placed in 10 mL PBS for 8 hrs, and 300 uL aliquot placed in spectrophotometer (blanked with a control pack removed post-operatively).

[4] = In vitro elution of halofuginone from coated Vicryl sutures into PBS; format: physicochemical; details: UV spectroscopy at 243 nm
Description: To determine halofuginone elution, an in vitro elution study was performed. The release of halofuginone from coated Vicryl sutures into phosphate buffered saline (PBS) was used to estimate kinetics of drug release in vivo. A 2.5 cm segment of HF—Br coated Vicryl was placed in 1.5 mL of PBS and incubated at 37° C. At 5, 15, 30, and 45 minutes and 1, 2, 4, 8, 24, 48, 72, and 96 hours the segment was transferred into a new 1.5 mL aliquot of PBS, and the amount of halofuginone from the previous aliquot was measured with UV spectrophotometry at 243 nm. Data from UV spectrophotometry indicated a rapid release of HF—Br into PBS in vitro (FIG. 3). It was approximated that 90% of the total drug mass was released in 30 minutes and that the drug was nearly eliminated in 2 hours.

SMILES: O=C(CC1NCCCC1O)Cn1cnc2cc(Br)c(Cl)cc2c1=O (centres unmarked) [HF—Br, 7-bromo-6-chloro-3-[3-(3-hydroxy-2-piperidinyl)-2-oxopropyl]-4(3H)]
- inflammation scores ([1]; H&E, weeks 2, 6 and 12, vs controls): consistently lower
- cross sectional areas of collagen deposition (scar) ([1]; Masson's trichrome, vs controls): consistently smaller
- salt soluble collagen levels ([1]; Sircol assay, treated vs control, each time point): No significant difference
- difference in collagen staining between treated and control ([1]; Week 2): 2.7 fold
- wound area approximation ([1]; Week 2): 322,107 μm^2
- gross appearance of wounds ([1]; later time points, vs control): No significant difference in appearance
- stiffness, ultimate tensile load and percent elongation (tensile strength) ([1]; rat, in vivo): No significant difference
- gross appearance of wounds (erythema and induration) ([1]; two weeks, vs control wounds): More erythema and induration were visible in control wounds
- 1-alpha-2 collagen gene expression [2]: inhibited
- post-operative scar formation [3]: reduced post-operative scar formation
- release of HF—Br into PBS in vitro [4]: rapid drug release
